Source: ChEMBL document CHEMBL1140772, “Discovery of indenopyrazoles as EGFR and VEGFR-2 tyrosine kinase inhibitors by in silico high-throughput screening” (Bioorg Med Chem Lett, 2008)
The source made the active and inactive calls. The rule behind the calls is not given here.

Legend:
[1] = molecular target: Vascular endothelial growth factor receptor 2 (Homo sapiens, UniProt P35968); assay: Inhibition of KDR
[2] = molecular target: Receptor tyrosine-protein kinase erbB-2 (Homo sapiens) (UniProt P04626); assay: Inhibition of HER2 at 1 uM
Receptor tyrosine-protein kinase erbB-2 (Homo sapiens), sequence (P04626 whole entry): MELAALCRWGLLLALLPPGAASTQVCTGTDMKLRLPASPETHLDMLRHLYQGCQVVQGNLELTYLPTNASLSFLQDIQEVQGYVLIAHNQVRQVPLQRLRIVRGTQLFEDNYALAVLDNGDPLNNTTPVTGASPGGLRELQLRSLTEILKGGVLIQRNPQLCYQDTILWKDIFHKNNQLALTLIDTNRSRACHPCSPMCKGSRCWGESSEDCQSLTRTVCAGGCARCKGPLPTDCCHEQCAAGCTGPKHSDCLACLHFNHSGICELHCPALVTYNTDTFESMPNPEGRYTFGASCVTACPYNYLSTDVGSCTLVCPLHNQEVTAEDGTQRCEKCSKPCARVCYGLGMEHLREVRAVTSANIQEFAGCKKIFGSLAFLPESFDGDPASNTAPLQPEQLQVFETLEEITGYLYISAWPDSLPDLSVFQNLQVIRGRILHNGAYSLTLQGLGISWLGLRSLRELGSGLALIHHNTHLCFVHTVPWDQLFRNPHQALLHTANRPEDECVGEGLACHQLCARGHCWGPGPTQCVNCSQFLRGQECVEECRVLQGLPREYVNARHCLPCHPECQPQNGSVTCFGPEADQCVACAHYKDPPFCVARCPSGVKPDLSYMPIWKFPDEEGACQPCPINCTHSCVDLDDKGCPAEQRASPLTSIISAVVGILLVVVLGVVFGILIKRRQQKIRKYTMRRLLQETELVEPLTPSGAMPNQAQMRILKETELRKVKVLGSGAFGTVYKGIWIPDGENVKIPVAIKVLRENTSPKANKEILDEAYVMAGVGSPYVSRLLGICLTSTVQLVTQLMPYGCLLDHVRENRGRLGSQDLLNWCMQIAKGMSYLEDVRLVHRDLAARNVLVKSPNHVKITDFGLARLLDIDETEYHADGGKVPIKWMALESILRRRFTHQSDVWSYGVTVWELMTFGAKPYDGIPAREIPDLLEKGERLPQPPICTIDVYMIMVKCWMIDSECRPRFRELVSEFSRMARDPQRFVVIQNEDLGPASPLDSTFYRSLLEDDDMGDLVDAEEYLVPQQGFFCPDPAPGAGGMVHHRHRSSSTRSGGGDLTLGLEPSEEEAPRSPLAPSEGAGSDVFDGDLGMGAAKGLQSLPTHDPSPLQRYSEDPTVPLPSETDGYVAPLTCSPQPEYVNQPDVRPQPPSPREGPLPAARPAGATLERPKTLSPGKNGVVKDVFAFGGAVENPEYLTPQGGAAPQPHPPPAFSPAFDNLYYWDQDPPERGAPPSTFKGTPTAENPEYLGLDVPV

A-431 [3] = assay: Growth inhibition of human A431 cells overexpressing EGFR after 72 hrs by MTT assay; assay type: functional; conditions: A-431, 72 h
A-431 [4] = assay: Inhibition of human CDK in A431 cells assessed as inhibition of phosphorylation of Rb at 1 uM after 12 hrs; assay type: cell-based

Vascular endothelial growth factor receptor 2, sequence (P35968 whole entry): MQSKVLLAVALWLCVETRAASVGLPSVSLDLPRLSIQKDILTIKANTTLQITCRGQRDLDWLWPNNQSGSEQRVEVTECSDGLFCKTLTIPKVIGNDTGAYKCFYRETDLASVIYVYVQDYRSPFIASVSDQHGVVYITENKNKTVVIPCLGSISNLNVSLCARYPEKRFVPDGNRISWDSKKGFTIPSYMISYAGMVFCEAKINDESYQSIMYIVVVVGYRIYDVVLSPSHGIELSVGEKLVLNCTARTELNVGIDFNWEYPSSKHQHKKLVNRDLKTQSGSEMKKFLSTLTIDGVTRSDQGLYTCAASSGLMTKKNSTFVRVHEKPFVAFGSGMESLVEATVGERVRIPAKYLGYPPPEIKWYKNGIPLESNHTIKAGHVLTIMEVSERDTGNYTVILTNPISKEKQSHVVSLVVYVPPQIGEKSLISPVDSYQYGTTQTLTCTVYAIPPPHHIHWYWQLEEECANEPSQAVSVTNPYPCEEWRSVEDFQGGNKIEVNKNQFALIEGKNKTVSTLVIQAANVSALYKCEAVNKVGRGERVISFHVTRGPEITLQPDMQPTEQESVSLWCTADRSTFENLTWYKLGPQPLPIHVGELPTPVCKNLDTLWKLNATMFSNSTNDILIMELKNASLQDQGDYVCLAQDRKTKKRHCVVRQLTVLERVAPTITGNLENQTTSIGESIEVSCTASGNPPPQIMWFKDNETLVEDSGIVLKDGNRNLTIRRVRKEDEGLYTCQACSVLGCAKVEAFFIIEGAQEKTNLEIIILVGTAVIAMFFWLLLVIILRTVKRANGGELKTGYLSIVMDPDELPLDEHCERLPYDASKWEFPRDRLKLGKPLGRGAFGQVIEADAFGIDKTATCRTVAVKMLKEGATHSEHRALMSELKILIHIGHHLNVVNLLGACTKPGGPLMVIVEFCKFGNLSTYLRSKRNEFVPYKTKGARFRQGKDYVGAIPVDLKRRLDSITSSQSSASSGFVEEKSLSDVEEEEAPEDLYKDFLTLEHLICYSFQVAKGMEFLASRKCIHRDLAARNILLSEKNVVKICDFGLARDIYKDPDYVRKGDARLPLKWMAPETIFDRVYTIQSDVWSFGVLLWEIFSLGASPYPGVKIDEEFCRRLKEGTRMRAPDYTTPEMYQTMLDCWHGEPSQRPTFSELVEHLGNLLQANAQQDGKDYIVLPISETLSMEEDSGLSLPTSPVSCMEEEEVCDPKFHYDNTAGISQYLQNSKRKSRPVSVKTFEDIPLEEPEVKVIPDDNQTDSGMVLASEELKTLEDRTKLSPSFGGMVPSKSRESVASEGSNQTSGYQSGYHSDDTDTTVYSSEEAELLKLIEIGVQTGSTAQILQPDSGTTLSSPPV

SMILES	IC50 [1] [µM]	inhibition [2] [%]	GI50 (A-431 [3]) [µM]	Activity (A-431 [4])
Nc1ccc(NC(=O)Nc2cccc3c2C(=O)c2c-3n[nH]c2-c2ccc3c(c2)OCO3)cc1	0.38	28	0.062	Active
O=C(Nc1ccc(O)cc1)Nc1cccc2c1C(=O)c1c-2n[nH]c1-c1ccc2c(c1)OCO2	0.7	2	0.056	Active
COc1ccc(-c2[nH]nc3c2C(=O)c2c(NC(=O)Nc4ccc(O)cc4)cccc2-3)cc1		8	> 10	
Nc1ccc(NC(=O)Nc2cccc3c2C(=O)c2c-3n[nH]c2-c2ccc(O)cc2)cc1	0.65	7	> 10	
Nc1ccc(NC(=O)Nc2cccc3c2C(=O)c2c-3n[nH]c2-c2ccc(O)c(O)c2)cc1		3	4.79	
COc1ccc(-c2[nH]nc3c2C(=O)c2c(NC(=O)Nc4ccc(N)cc4)cccc2-3)cc1		6	1.59	
